{"source": "patent US20110009435A1", "about": "“HETERO BICYCLIC CARBOXAMIDE DERIVATIVES AND THEIR PHARMACEUTICAL USE AND COMPOSITIONS” (Pfizer, Inc., priority 2007, published 2011)", "type_in_all_cases": "biochemical", "key": {"[1]": {"target": "T1, catalytic domain of human recombinant MMP-3 (Homo sapiens, UniProt P08254)", "T1 construct": "made in house", "T1 sequence (P08254 100-272 limits assumed)": "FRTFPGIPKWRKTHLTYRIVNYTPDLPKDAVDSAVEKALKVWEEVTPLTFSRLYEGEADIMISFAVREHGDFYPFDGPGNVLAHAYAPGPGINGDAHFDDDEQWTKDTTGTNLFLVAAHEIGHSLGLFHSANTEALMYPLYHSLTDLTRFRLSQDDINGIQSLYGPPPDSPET", "assay": "In vitro MMP inhibition assay, MMP-3 catalytic domain (fluorogenic peptide substrate cleavage, Ki)", "settings": "human MMP-3, catalytic domain (CD); read-out: hMMP Ki 03/CD", "method": "(§1) Matrix Metalloproteinase inhibitor compounds were analyzed in in vitro MMP Inhibition assays to determine their ability to inhibit the MMP cleavage of peptide substrates. Inhibition constants (Ki) were calculated from the assayed compound-MMP interactions.\n(§2) Human recombinant MMP-1, MMP-2, MMP-3, MMP-7, MMP-9, MMP-12, MMP-13, MMP-14 and MMP-15 were used in these assays. The enzymes are prepared following known laboratory procedures. Protocols for the preparation and use of these enzymes are available in the scientific literature. See, e.g., Enzyme Nomenclature (Academic Press, San Diego, Calif., 1992) and the citations therein. See also Frije et al., J. Biol. Chem., 26(24), 16766-73 (1994).\nThe catalytic domain MMP-3 cDNA may be used to express the catalytic domain enzyme in E. coli inclusion bodies. Then the enzyme is solubilized in urea, purified on a preparative […] reverse phase HPLC column, and refolded in the presence of zinc acetate and purified for use.\nThe fluorogenic, methoxycoumarin-containing polypeptide substrate Mca-Arg-Pro-Lys-Pro-Val-Glu-Nva-Trp-Arg-Lys(Dnp)-NH2 (Bachem catalog number M-2110) was used as the MMP substrate in the MMP inhibition assays for catalytic domain of human recombinant MMP-3 (which refers to the catalytic domain of stromelysin). Here, “MCA” is 7-methoxycoumarin-4-yl acetyl and “Dpa” is 3-(2,4-dinitrophenyl)-L-2,3-di-aminopropionyl group. In the absence of MMP inhibitory activity, the substrate is cleaved at the Gly-Leu peptide bond. The cleavage separates the highly fluorogenic peptide from the 2,4-dinitrophenyl quencher, resulting in an increase of fluorescent intensity.\nFor the human MMP-3 assay, dilutions of the inhibitors (or salts thereof) were prepared in 100% DMSO. The stock solutions were diluted in Buffer B (50 mM N-morpholinoethane sulfonate (“MES”), 100 mM NaCl, 10 mM CaCl2, 0.005% polyoxyethylene 23 lauryl ether, pH 6.0)) to obtain solutions with different compound concentrations, i.e., assay solutions with different concentrations of the assayed MMP inhibitory compound in 1% DMSO. The experiment controls contained the same amount of Buffer B/DMSO as the assayed sample, but contained no inhibitor.\n(§3) To determine Ki, the inhibitor samples are incubated at room temperature for 1 hr in the presence of enzyme and then 4 μM of appropriate MMP substrate was added, and samples were analyzed on a Tecan SpectraFlour Plus plate reader. The excitation wavelength is 330 nm, and the emission (fluorescence) wavelength is 420 nm. In the absence of MMP inhibitory activity, the substrate is cleaved at the Gly-Leu bond resulting in an increase of relative fluorescence. Inhibition is observed as a reduced rate of increase in relative fluorescence.\n(§4) The inhibitors are analyzed using a single low enzyme concentration with a single substrate concentration fixed at or below the Km. This protocol is a modification of method by Knight et al., FEBS Lett., 296(3), 263-266 (1992). Apparent inhibitory constants are determined by non-linear regression of reaction velocity as a function of inhibitor and enzyme concentration using Morrison's equation, as described by Kuzmic, Anal. Biochem. 286, 45-50 (2000). Modifications were made in the non-linear regression method to allow a common control reaction rate and effective enzyme concentration to be shared between all dose-response relationships on a given assay plate. Since the substrate concentration was chosen to be at or below the Km, the apparent Ki's from this analysis were reported as Ki's without correction for the influence of substrate."}, "Human recombinant MMP-14": {"target": "T2, Human recombinant MMP-14 (Homo sapiens, UniProt P50281)", "T2 construct": "The MMP-14 cDNA may be used to express the catalytic domain enzyme in E. coli inclusion bodies; made in house", "assay": "In vitro MMP inhibition assay, MMP-14 catalytic domain (fluorogenic peptide substrate cleavage, Ki)", "settings": "human MMP-14, catalytic domain (CD); read-out: hMMP Ki 14/CD", "method": "as §1, §2\nThe MMP-14 cDNA may be used to express the catalytic domain enzyme in E. coli inclusion bodies. Then the enzyme is solubilized in urea, purified on a preparative […] reverse phase HPLC column, and refolded in the presence of zinc acetate and purified for use.\n(§5) The fluorogenic, methoxycoumarin-containing polypeptide substrate MCA-ArgProLeuGlyLeuDpaAlaArgGluArgNH2 was used as the MMP substrate in the MMP inhibition assays for human recombinant MMP-1, MMP-2, MMP-7, MMP-9, MMP-12, MMP-13, MMP-14 and MMP-15. Here, “MCA” is 7-methoxycoumarin-4-yl acetyl and “Dpa” is 3-(2,4-dinitrophenyl)-L-2,3-di-aminopropionyl group. In the absence of MMP inhibitory activity, the substrate is cleaved at the Gly-Leu peptide bond. The cleavage separates the highly fluorogenic peptide from the 2,4-dinitrophenyl quencher, resulting in an increase of fluorescent intensity.\n(§6) For the human MMP-1, MMP-2, MMP-7, MMP-9, MMP-12, MMP-13, MMP-14 and MMP-15 assays, dilutions of the inhibitors (or salts thereof) were prepared in 100% dimethyl sulfoxide (DMSO). The stock solutions were diluted in Buffer A (100 mM Tris-HCl, 100 mM NaCl, 10 mM CaCl2, 0.005% polyoxyethylene 23 lauryl ether, pH 7.5) to obtain solutions with different compound concentrations, i.e., assay solutions with different concentrations of the assayed MMP inhibitory compound in 1% DMSO. The experiment controls contained the same amount of Buffer A/DMSO as the assayed sample, but contained no inhibitor.\nas §3\nas §4, with “Since the substrate concentration was chosen to be at or below the Km, the apparent Ki's from this analysis were reported as Ki's without correction for the influence of substrate.” left out"}, "Human recombinant MMP-12": {"target": "T3, Human recombinant MMP-12 (Homo sapiens, UniProt P39900)", "T3 construct": "The catalytic domain of MMP-12 and MMP-15 enzymes were purchased commercially for these assays; purchased", "T3 sequence (P39900 106-263 limits assumed)": "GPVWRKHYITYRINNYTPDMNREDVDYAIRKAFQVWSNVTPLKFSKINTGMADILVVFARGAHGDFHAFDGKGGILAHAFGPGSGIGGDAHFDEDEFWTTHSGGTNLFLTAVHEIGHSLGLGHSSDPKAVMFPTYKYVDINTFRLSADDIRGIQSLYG", "assay": "In vitro MMP inhibition assay, MMP-12 catalytic domain (fluorogenic peptide substrate cleavage, Ki)", "settings": "human MMP-12, catalytic domain (CD); read-out: hMMP Ki 12/CD", "method": "as §1, §2\n(§7) The catalytic domain of MMP-12 and MMP-15 enzymes were purchased commercially for these assays.\nas §5, §6, §3, §4"}, "Human recombinant MMP-13": {"target": "T4, Human recombinant MMP-13 (Homo sapiens, UniProt P45452)", "T4 construct": "made in house; host or cells: baculovirus expression (insect cells)", "assay": "In vitro MMP inhibition assay, MMP-13 (fluorogenic peptide substrate cleavage, Ki)", "settings": "human MMP-13, full length (FL); read-out: hMMP Ki 13/FL", "method": "as §1, §2\nThe MMP-13 may be obtained as a proenzyme from a full-length cDNA clone using baculovirus expression, as described by V. A. Luckow, “Insect Cell Expression Technology,” Protein Engineering: Principles and Practice, pp. 183-218 (edited by J. L. Cleland et al., Wiley-Liss, Inc., 1996). The expressed proenzyme was first purified over a heparin agarose column, and then over a chelating zinc chloride column. Further details on baculovirus expression systems may be found in, for example, Luckow et al., J. Virol., 67, 4566-79 (1993). See also O'Reilly et al, Baculovirus Expression Vectors: A Laboratory Manual (W. H. Freeman and Co., New York, N.Y., 1992). See also King et al., The Baculovirus Expression System: A Laboratory Guide (Chapman & Hall, London, England, 1992).\nAll full length MMPs were activated using 4-aminophenylmercuric acetate (“APMA”, Sigma Chemical, St. Louis, Mo.) or trypsin. MMP-9 also was activated using human recombinant MMP-3 following standard cloning and purification techniques.\nas §5, §6, §3\nThe inhibitors are analyzed using a single low enzyme concentration with a single substrate concentration fixed at or below the Km. This protocol is a modification of method by Knight et al., FEBS Lett., 296(3), 263-266 (1992). Apparent inhibitory constants are determined by non-linear regression of reaction velocity as a function of inhibitor and enzyme concentration using Morrison's equation, as described by Kuzmic, Anal. Biochem. 286, 45-50 (2000). […]"}, "Human recombinant MMP-15": {"target": "T5, Human recombinant MMP-15 (Homo sapiens, UniProt P51511)", "T5 construct": "The catalytic domain of MMP-12 and MMP-15 enzymes were purchased commercially for these assays; purchased", "T5 sequence (P51511 132-304 limits assumed)": "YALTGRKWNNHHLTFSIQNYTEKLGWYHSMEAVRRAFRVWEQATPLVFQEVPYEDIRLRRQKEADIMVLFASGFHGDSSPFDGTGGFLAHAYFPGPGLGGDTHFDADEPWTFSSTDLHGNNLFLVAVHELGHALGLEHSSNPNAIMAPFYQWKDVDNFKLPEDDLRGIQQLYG", "assay": "In vitro MMP inhibition assay, MMP-15 catalytic domain (fluorogenic peptide substrate cleavage, Ki)", "settings": "human MMP-15, catalytic domain (CD); read-out: hMMP Ki 15/CD", "method": "as §1, §2, §7, §5, §6, §3, §4"}}}
{"smiles": "COc1cc(CNC(=O)c2nc3scc(COC[C@H]4CC[C@H](NS(C)(=O)=O)CC4)c3c(=O)[nH]2)ccc1F", "note": "[Example 18, N-(4-Fluoro-3-methoxybenzyl)-5-[({trans-4-[(methylsulfonyl)amino]cyclohexyl}methoxy)methyl]-4-oxo-3,4-dihydrothieno[2,3-d]pyrimidine-2-carboxamide]", "values": [{"measurement": "Ki", "setting": "[1]", "value": 1, "unit": "µM"}, {"measurement": "Ki", "setting": "Human recombinant MMP-14", "value": "> 10", "unit": "µM"}, {"measurement": "Ki", "setting": "Human recombinant MMP-12", "value": "> 10", "unit": "µM"}, {"measurement": "Ki", "setting": "Human recombinant MMP-13", "value": 0.000732, "unit": "µM"}, {"measurement": "Ki", "setting": "Human recombinant MMP-15", "value": "> 10", "unit": "µM"}]}
{"smiles": "COc1cc(CNC(=O)c2nc3scc(COC[C@H]4CC[C@H](NC(C)=O)CC4)c3c(=O)[nH]2)ccc1F", "note": "[Example 19, 5-({[trans-4-(Acetylamino)cyclohexyl]methoxy}methyl)-N-(4-fluoro-3-methoxybenzyl)-4-oxo-3,4-dihydrothieno[2,3-d]pyrimidine-2-carboxamide]", "values": [{"measurement": "Ki", "setting": "[1]", "value": 1.22, "unit": "µM"}, {"measurement": "Ki", "setting": "Human recombinant MMP-14", "value": "> 10", "unit": "µM"}, {"measurement": "Ki", "setting": "Human recombinant MMP-12", "value": "> 10", "unit": "µM"}, {"measurement": "Ki", "setting": "Human recombinant MMP-13", "value": 0.00248, "unit": "µM"}, {"measurement": "Ki", "setting": "Human recombinant MMP-15", "value": "> 10", "unit": "µM"}]}
